According to patent publication US20230053540A1, “TREATMENT OF LIVER INJURY” (Massachusetts Institute of Technology, priority 2019, published 2023):

Test system: hepatocytes
Assay: Seq-Well scRNA-Seq of hepatocytes after APAP overdose (signature scores, DEG vs untreated)
Format: in vivo, mouse
Conditions: APAP vs UT, composite DEG

CC(=O)Nc1ccc(O)cc1 [APAP, acetaminophen]
Apoa5 logFC: 0.3232 | Apob logFC: 0.5802 | Apoc3 logFC: −0.7688 | Apoc4 logFC: −1.002 | Apom logFC: −0.3024 | Aqp9 logFC: −0.3109 | Arg1 logFC: 0.3179 | Arhgap5 logFC: 0.2952 | Arhgef12 logFC: 0.5908 | Arl5a logFC: 0.2648 | Arl6ip1 logFC: −0.3649 | Arpc1b logFC: 0.2597 | Arrdc3 logFC: 0.5269 | Asgr2 logFC: 0.3064 | Asl logFC: 0.5586 | Ass1 logFC: −0.3144 | Atf5 logFC: 0.329 | Atf6 logFC: 0.3778 | Atp1a1 logFC: 0.4191 | Atp1b1 logFC: 0.3702 | Atp2a2 logFC: 0.495 | Atp2b1 logFC: 0.3321 | Atp5b logFC: 0.2917 | Atp5c1 logFC: −0.3476 | Atp5g3 logFC: −0.3002 | Atp5k logFC: −0.4773 | Atp5o logFC: −0.3316 | Atp6v1f logFC: −0.2529 | Atp11c logFC: 0.2605 | Atp13a3 logFC: 0.3945 | Atp5h logFC: −0.6398 | Atp5d logFC: 0.2501 | Atxn7l3b logFC: 0.3062 | Azin1 logFC: 0.2701 | B2m logFC: −0.418 | B4galt5 logFC: 0.4763 | BC025446 logFC: 0.2942 | BC089597 logFC: 0.2622 | Baat logFC: −0.3086 | Bach1 logFC: 0.8323 | Bbox1 logFC: −0.4082 | Bche logFC: 0.3134 | Bckdha logFC: −0.35 | Bcl2l1 logFC: 0.7751 | Bet1 logFC: −0.2966 | Bfar logFC: 0.2903 | Bhmt2 logFC: −0.3114 | Bhmt logFC: −0.5202 | Birc6 logFC: 0.3444 | Bnip3 logFC: 0.4032 | Bola3 logFC: −0.3689 | Bphl logFC: −0.4075 | Bptf logFC: 0.3245 | Brap logFC: 0.3492 | Brd2 logFC: 0.5715 | Bsg logFC: −0.3152 | Bst2 logFC: −0.3156 | Btaf1 logFC: 0.2755 | Bzw1 logFC: 0.2948 | C1qb logFC: 0.6817 | C3 logFC: 0.4495 | C4b logFC: 0.2833 | C8b logFC: −0.3602 | C8g logFC: −0.6545 | C9 logFC: −0.4271 | C130074G19Rik logFC: −0.3563 | C230081A13Rik logFC: 0.427 | Cald1 logFC: 0.3737 | Calr logFC: 0.5551 | Camk2n1 logFC: 0.2501 | Caprin1 logFC: 0.2628 | Car3 logFC: −1.036 | Car5a logFC: −0.3088 | Cars logFC: 0.3158 | Cast logFC: 0.4009 | Cbr1 logFC: 0.2847 | Ccbl1 logFC: −0.3649 | Ccl6 logFC: 0.7891 | Ccs logFC: −0.4267 | Cd1d1 logFC: 0.2912 | Cd5l logFC: 0.6935 | Cd14 logFC: 0.3621 | Cd163 logFC: 0.4408 | Cdkn1a logFC: 1.215 | Cebpa logFC: −0.3916 | Cela1 logFC: −0.2723 | Cep85l logFC: 0.2779 | Cers6 logFC: 0.5328 | Ces1b logFC: 0.373 | Ces1f logFC: −0.3126 | Ces3a logFC: −0.5253 | Ces1d logFC: −0.4289 | Cfhr1 logFC: −0.3253 | Chac2 logFC: −0.2865 | Chd1 logFC: 0.3788 | Chka logFC: 1.375 | Chpt1 logFC: 0.3566 | Cideb logFC: −0.3684 | Cidec logFC: 0.2994 | Cisd1 logFC: −0.3727 | Cldn2 logFC: −0.2511 | Cldn3 logFC: −0.3145 | Clec4f logFC: 1.108 | Clec4d logFC: 0.2636 | Cnpy2 logFC: −0.3729 | Coa6 logFC: −0.4114 | Commd6 logFC: −0.3645 | Comt logFC: −0.3684 | Copb2 logFC: 0.2839 | Copz1 logFC: 0.2577 | Coq9 logFC: −0.3479 | Coro1c logFC: 0.3067 | Cox4i1 logFC: −0.516 | Cox5a logFC: 0.4024 | Cox6a1 logFC: −0.4872 | Cox6b1 logFC: −0.362 | Cox6c logFC: −0.8443 | Cox8a logFC: 0.4417 | Cpne3 logFC: 0.258 | Cpt1a logFC: 0.3729 | Crat logFC: 0.2556 | Creb3l2 logFC: 0.4272 | Creb3l3 logFC: 0.2757 | Creg1 logFC: 0.2768 | Creld2 logFC: 0.6087 | Csad logFC: −0.5598 | Ctage5 logFC: 0.3287 | Cth logFC: −0.5109 | Ctnnb1 logFC: 0.2957 | Ctsa logFC: 0.252 | Ctsb logFC: 0.5213 | Ctsh logFC: 0.3245 | Ctss logFC: 0.7642 | Cvp2e1 logFC: −2.319 | Cxcl1 logFC: 0.4498 | Cxcl12 logFC: −0.3058 | Cxcr2 logFC: 0.4023 | Cyp4f14 logFC: −0.2959 | Cyp4f15 logFC: −0.2998 | Cyp27a1 logFC: −0.3735 | D10Jhu81e logFC: −0.3957 | D10Wsu102e logFC: 0.5878 | D17Wsu92e logFC: 0.372 | Dbi logFC: −0.7164 | Ddah1 logFC: −0.312 | Ddb1 logFC: 0.2778 | Ddc logFC: −0.3608 | Ddx6 logFC: 0.4443 | Ddx27 logFC: 0.2522 | Decr1 logFC: 0.4664 | Decr2 logFC: 0.4189 | Dennd5b logFC: 0.2935 | Deptor logFC: 0.2606 | Derl2 logFC: −0.3317 | Dgat2 logFC: −0.3433 | Dhcr24 logFC: 0.4238 | Dhdh logFC: −0.3348 | Dhrs4 logFC: −0.3321 | Dhx9 logFC: 0.3504 | Dmgdh logFC: 0.2658 | Dnajb9 logFC: 0.2586 | Dnajb11 logFC: 0.3154 | Dnajc3 logFC: 0.4564 | Dnajc19 logFC: −0.316 | Dusp5 logFC: 0.2964 | Dync1h1 logFC: 0.3796 | Dync1li1 logFC: 0.2624 | Ebp logFC: −0.3553 | Ech1 logFC: −0.4291 | Echs1 logFC: −0.3316 | Eci1 logFC: −0.2764 | Eci2 logFC: 0.311 | Edem1 logFC: 0.2869 | Edf1 logFC: −0.3817 | Eef1a1 logFC: 0.4393 | Efhd2 logFC: 0.5838 | Egfr logFC: 0.505 | Egr1 logFC: 0.5846 | Ehhadh logFC: −0.2505 | Ei24 logFC: 0.2573 | Eif4b logFC: 0.3682 | Eif4g2 logFC: 0.5597 | Eif5 logFC: 0.5763 | Ell2 logFC: 0.4172 | Elovl2 logFC: 0.4522 | Elovl3 logFC: −0.676 | Ephx2 logFC: −0.3693 | Eprs logFC: 0.3701 | Erbb2ip logFC: 0.3332 | Erp44 logFC: 0.2795 | Esd logFC: −0.2808 | Ethe1 logFC: −0.3334 | Etnppl logFC: 0.4967 | Ets2 logFC: 0.6956 | F2 logFC: 0.3213 | F9 logFC: 0.2568 | F10 logFC: 0.2791 | F12 logFC: 0.2567 | Fah logFC: 0.3025 | Fam25c logFC: −0.2977 | Fam107b logFC: 0.4633 | Fam120a logFC: 0.28
